Values quoted from earlier work as cited in patent US9399025B2, “Modified release dosage forms of skeletal muscle relaxants” (APTALIS PHARMATECH, INC., priority 2003, dated 2016).

Elimination half-life (after oral administration): one to three | Absorption after oral administration (oral): well absorbed
SMILES: CN(C)CCC=C1c2ccccc2C=Cc2ccccc21 [Cyclobenzaprine]
